{"source": "patent US12059467B2", "about": "“Low-toxicity and high-efficiency orthoester mixture pharmaceutical adjuvant, preparation method thereof, and topical sustained release drug delivery formulation including same” (ANHUI UNIVERSITY, priority 2022, dated 2024)", "molecules": {"B1": {"name": "ovalbumin (protein, UniProt P01012 2-386, looked up)", "Ovalbumin": "GSIGAASMEFCFDVFKELKVHHANENIFYCPIAIMSALAMVYLGAKDSTRTQINKVVRFDKLPGFGDSIEAQCGTSVNVHSSLRDILNQITKPNDVYSFSLASRLYAEERYPILPEYLQCVKELYRGGLEPINFQTAADQARELINSWVESQTNGIIRNVLQPSSVDSQTAMVLVNAIVFKGLWEKAFKDEDTQAMPFRVTEQESKPVQMMYQIGLFRVASMASEKMKILELPFASGTMSMLVLLPDEVSGLEQLESIINFEKLTEWTSSNVMEERKIKVYLPRMKMEEKYNLTSVLMAMGITDVFSSSANLSGISSAESLKISQAVHAAHAEINEAGREVVGSAEAGVDAASVSEEFRADHPFLFCIKHIATNAVLFFGRCVSP", "notes": "ovalbumin alone, injected subcutaneously as comparator"}}, "key": {"pain model rats": {"test_system": "pain model rats", "assay": "Analgesic effect in pain model rats", "format": "in vivo", "settings": "subcutaneous, 200 mg/kg based on a mepivacaine content", "procedure": "Mepivacaine and the prepared mepivacaine injection (E-A′-Mep) each were subcutaneously injected into different pain model rats at a dose of 200 mg/kg based on a mepivacaine content. A time required for a rat to have a normal response to deep pain and electric stimulation and a time required for a rat to return from a motor weakness state to a normal state were then recorded; and when half of rats returned to a normal state, the test was stopped."}, "mice [1]": {"test_system": "mice", "assay": "Cardiovascular system-associated safety evaluation", "format": "in vivo", "settings": "subcutaneous, 15,000 mg/kg, measured daily in the following week", "procedure": "Different formulations each were subcutaneously injected into different mice at a dose of 15,000 mg/kg, and a blood pressure and a heart rate of mice in each group were measured daily by […] in the following week."}, "[2]": {"assay": "Alcohol metabolite biodistribution test", "format": "in vivo, mice", "settings": "subcutaneous, 15,000 mg/kg; urine, blood, heart, liver, spleen, lung, kidney; gas chromatograph", "procedure": "Preparation of standard solutions: an appropriate amount of methanol or ethanol was accurately weighed and prepared with water into a 10.0 mg/mL standard solution as a stock solution, and the stock solution was further diluted into aqueous solutions with concentrations of 0.10 mg/mL, 0.20 mg/mL, 0.50 mg/mL, 0.80 mg/mL, 1.00 mg/mL, 2.00 mg/mL, and 3.00 mg/mL, respectively. Preparation of an internal standard solution: an appropriate amount of tert-butyl alcohol (TBA) was accurately weighed and prepared with water into a 5.0 mg/mL TBA stock solution, the TBA stock solution was diluted with water to obtain a 40.0 μg/mL TBA working solution, and the TBA working solution was refrigerated and stored in a closed manner.\nDifferent formulations each were subcutaneously injected into different mice at a dose of 15,000 mg/kg, and then the urine, blood, heart, liver, spleen, lung, and kidney were collected from the mice at different time points. 0.10 mL of each of the standard solutions, urine, blood, and tissue extracts was taken and mixed with 0.50 mL of a 40.0 μg/mL TBA working solution, and a resulting mixture was tested by a gas chromatograph. A standard curve with a linear regression coefficient of 0.999 or higher was plotted with results of the standard solutions, and then a methanol or ethanol content in each sample was calculated. […]"}, "[3]": {"test_system": "red blood cell (RBC) suspension", "assay": "Hemolysis test", "format": "cell-based", "settings": "3 mg/mL to 15 mg/mL, 37° C., 3 h; hemolysis rate lower than 5% means no hemolytic effect", "procedure": "Preparation of test samples: negative control: 2.5 mL of a red blood cell (RBC) suspension+2.5 mL of a 0.9% sodium chloride injection; positive control: 2.5 mL of an RBC suspension+2.5 mL of distilled water; and experimental group: 2.5 mL of an RBC suspension+2.2 mL of a 0.9% sodium chloride injection+0.3 mL of a formulation to be tested (3 mg/mL to 15 mg/mL).\nEach sample was incubated in a 37° C. thermostatic water bath for 3 h and then centrifuged (3,000 r/min, 5 min) to obtain a supernatant, the supernatant was allowed to stand at room temperature for 30 min, and the absorbance of the sample was determined at 540 nm by a microplate reader; and the influence of plasma contents was eliminated with the absorbance of the negative control group, and then a hemolysis rate (%) of the experimental group could be calculated according to the following formula: HL%=At/Apc×100%, where At represents an absorbance value of a test sample and APC represents an absorbance value of the positive control. When a hemolysis rate is lower than 5%, it means that the formulation of the experimental group has no hemolytic effect at a corresponding concentration."}, "mice [4]": {"test_system": "mice", "assay": "Acute toxicity test (LD50, MTD)", "format": "in vivo", "procedure": "With OE-2 in the patent application 202111500943.7 as a reference formulation, the OE-1′ obtained in Example 1 was subjected to an acute toxicity test, and experimental steps were as follows:\nOE-2 and 0E-1′ each were administered to different mice at a time through intragastric administration, subcutaneous injection, and intraperitoneal injection with a dose gradient from 1 mg/kg to 50,000 mg/kg; poisoning characteristics of mice within 24 h were observed, and a mortality rate was counted; and an accurate LD50 value was calculated according to the probability unit method and the karber's method, and finally experimental groups were compared in terms of acute toxicity.\nNote: The larger the LD50 value in the experimental group, the smaller the acute toxicity."}, "mice [5]": {"test_system": "mice", "assay": "Chronic toxicity test", "format": "in vivo", "settings": "subcutaneous, 15,000 mg/kg, 6 months", "procedure": "Different formulations each were subcutaneously injected into different mice at a dose of 15,000 mg/kg, and the continuous behavioral observation, routine blood test, biochemical index test, and organ weight measurement were conducted for 6 months."}, "mice [6]": {"test_system": "mice", "assay": "Respiratory system and blood oxygen saturation tests", "format": "in vivo", "settings": "subcutaneous, 15,000 mg/kg, measured daily in the following week", "procedure": "Different formulations each were subcutaneously injected into different mice at a dose of 15,000 mg/kg, and a breathing rate and a blood oxygen saturation of mice in each group were measured daily by a small animal non-invasive pulse oximeter in the following week."}, "Hypertension model rats": {"test_system": "Hypertension model rats", "assay": "Antihypertensive effect in hypertension model rats", "settings": "40 mg/kg based on an irbesartan content; irbesartan orally, E-1′-Irbe subcutaneous injection", "experimental": "Hypertension model rats were treated with irbesartan and the prepared irbesartan injection (E-1′-Irbe) at a dose of 40 mg/kg based on an irbesartan content, where the irbesartan was administered orally and the irbesartan injection (E-1′-Irbe) was administered through subcutaneous injection. A drug concentration in blood and a blood pressure level were detected at a preset time point."}, "mice [7]": {"test_system": "mice", "assay": "Antibody-producing effect (IgG) in mice", "format": "in vivo", "settings": "subcutaneous, 50 mg/kg based on an ovalbumin content on day 1 and day 15", "procedure": "Ovalbumin and the prepared ovalbumin injection (E-C′-Ova) were subcutaneously injected into different mice at a dose of 50 mg/kg based on an ovalbumin content on day 1 and day 15, and an IgG concentration was detected."}}, "note": "Entries after “also recorded” stand apart in the source; their conditions may differ."}
{"molecule": "Cc1cccc(C)c1NC(=O)C1CCCCN1C", "note": "(centres unmarked) [Normal saline (NS) + mepivacaine, mepivacaine]", "values": [{"measurement": "Time required for half of rats to have a normal response, Deep pain", "setting": "pain model rats", "value": 60, "unit": "min"}, {"measurement": "Time required for half of rats to have a normal response, Electric stimulation", "setting": "pain model rats", "value": 60, "unit": "min"}, {"measurement": "Time required for half of rats to have a normal response, Motor weakness", "setting": "pain model rats", "value": 60, "unit": "min"}]}
{"molecule": "CCOC1OCC(COCC2COC(OCC)O2)O1", "note": "(centres unmarked) [OE-1′, 4,4′-(Oxybis(Methylene))Bis(2-Ethoxy-1,3-Dioxolane)]", "values": [{"measurement": "cardiovascular function (blood pressure and heart rate)", "setting": "mice [1]", "value": "at a normal level"}, {"measurement": "methanol or ethanol content in each sample", "setting": "[2]", "value": "a trace amount of ethanol is detected in each sample"}, {"measurement": "hemolytic effect (hemolysis rate)", "setting": "[3]", "value": "does not lead to a hemolytic effect"}, {"measurement": "tolerance dose of mice (MTD)", "setting": "mice [4]; mouse, in vivo", "value": "higher than a tolerance dose of mice for OE-2"}, {"measurement": "LD50 value", "setting": "mice [4]; single administration, intragastric, subcutaneous, intraperitoneal, mortality within 24 h", "value": "significantly higher than an LD50 value of OE-2"}, {"measurement": "organ mass", "setting": "mice [5]", "value": "significantly higher than an organ mass of mice in the OE-2 group"}, {"measurement": "blood oxygen saturation", "setting": "mice [6]", "value": "at normal levels"}, {"measurement": "breathing rate", "setting": "mice [6]", "value": "at normal levels"}]}
{"molecule": "CCCCC1=NC2(CCCC2)C(=O)N1Cc1ccc(-c2ccccc2-c2nnn[nH]2)cc1", "note": "[irbesartan]", "values": [{"measurement": "blood pressure level", "setting": "Hypertension model rats", "value": "can reduce a blood pressure; also recorded: rebounds rapidly"}, {"measurement": "drug concentration in blood", "setting": "Hypertension model rats", "value": "decreases rapidly"}]}
{"molecule": "B1", "values": [{"measurement": "IgG concentration", "setting": "mice [7]", "value": "decreases rapidly"}]}
